{"source": "paper PMC9194936", "about": "“Preclinical Activity and Pharmacokinetic/Pharmacodynamic Relationship for a Series of Novel Benzenesulfonamide Perforin Inhibitors” (ACS Pharmacology & Translational Science, 2022)", "key": {"[1]": {"test": "KHYG-1 viability (Trypan Blue exclusion)", "type": "cell-based", "conditions": "human, KHYG-1 NK cells, at 20 μM", "procedure": "The toxicity of perforin inhibitors toward KHYG-1 NK cells was determined as described previously.[14] KHYG-1 cells were preincubated with compounds in the same manner as the KHYG-1 cytotoxicity assay prior to the addition of RPMI with 0.1% BSA and incubation at 37 °C for 4 h. The cells were then washed and resuspended in complete medium and incubated for a further 24 h at 37 °C, after which cell viability was assessed by Trypan Blue (Thermo Fisher Scientific) exclusion."}, "perforin": {"molecular_target": "T1, perforin (Mus musculus, UniProt P10820)", "T1 construct": "endogenous in cells; host or cells: recipient cytotoxic lymphocytes (NK/CTL) of wild-type C57BL/6 mice, in vivo", "T1 sequence (P10820 21-554)": "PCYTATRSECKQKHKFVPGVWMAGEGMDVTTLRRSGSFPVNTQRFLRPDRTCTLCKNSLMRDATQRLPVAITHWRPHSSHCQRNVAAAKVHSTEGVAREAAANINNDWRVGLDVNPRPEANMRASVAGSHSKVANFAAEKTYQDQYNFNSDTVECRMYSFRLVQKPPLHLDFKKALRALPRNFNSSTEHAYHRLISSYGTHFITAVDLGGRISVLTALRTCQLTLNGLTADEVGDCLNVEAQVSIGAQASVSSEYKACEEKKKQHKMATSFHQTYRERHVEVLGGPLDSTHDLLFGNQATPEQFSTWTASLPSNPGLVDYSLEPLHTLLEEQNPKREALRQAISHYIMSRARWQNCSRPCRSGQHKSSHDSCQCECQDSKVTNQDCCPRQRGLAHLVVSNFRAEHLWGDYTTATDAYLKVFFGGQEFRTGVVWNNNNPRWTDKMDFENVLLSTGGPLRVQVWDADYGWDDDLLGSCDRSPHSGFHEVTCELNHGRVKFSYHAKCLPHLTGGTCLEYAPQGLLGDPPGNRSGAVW", "test": "In vivo perforin inhibition (allogeneic bone marrow transfer assay)", "procedure": "This model was selected as a surrogate assay for graft rejection during allogeneic bone marrow/stem cell transplantation to enable rapid testing of perforin inhibition in vivo. Mice were transplanted with a mixture of equal numbers of allogeneic immunologically mismatched and syngeneic immunologically matched bone marrow. […] Allogeneic cell survival in spleen and peripheral blood was determined 24 h after transplant, using C57BL/6 perforin-deficient mice (100% perforin inhibition) and untreated C57BL/6 mice (0% perforin inhibition) as controls.\nCompounds were tested for in vivo efficacy as described previously.[14] Age- (8–12 weeks) and sex-matched wild-type (H-2D^b, CD45.2^+) or perforin-deficient C57BL/6 mice (C57BL/6-Prf1^tm1Sdz/J; H-2D^b, CD45.2^+) received 12 ×10^6 bone marrow cells from both allogeneic BALB/c (H-2D^d) MHC-mismatched and syngeneic C57BL/6 (H-2D^b) MHC-matched mice (24 × 10^6 cells total). The wild-type recipient mice were treated with perforin inhibitor compounds by intraperitoneal injection in 20% hydroxypropyl-β-cyclodextrin vehicle (10 mL/kg), or with vehicle alone; perforin-deficient mice remained untreated. The mice were euthanized 24 h after bone marrow transfer for peripheral blood mononuclear cell (PBMC) and spleen collection.\nThroughout the study, we utilized two strategies to distinguish between recipient, donor allogeneic, and donor syngeneic cells based on either fluorescent labeling prior to transplant or congenic marker expression (CD45.1/CD45.2). In the fluorescent dye approach, allogeneic wild-type BALB/c (H-2D^d, CD45.2^+) bone marrow was labeled with 1 μM carboxyfluorescein succinimidyl ester (CFSE) prior to mixing with syngeneic bone marrow from C57BL/6 congenic mice (CD45.1^+). Twenty-four hours after cell transfer, the harvested cells were stained with anti-CD45.1-phycoerythrin and anti-TER119-allophycocyanin monoclonal antibodies (BioLegend, San Diego, CA). TER119 was used for erythroid exclusion prior to the identification of allogeneic (CFSE^+) and syngeneic (CD45.1^+) donor cells. Using a second purely congenic marker approach, allogeneic BALB/c congenic (H-2D^d, CD45.1^+) bone marrow was mixed with syngeneic C57BL/6 double congenic (H-2D^b, CD45.1^+CD45.2^+) bone marrow prior to transfer. The harvested cells were stained with anti-CD45.1-phycoerythrin, anti-CD45.2-phycoerythrin-cyanine-7, and anti-TER119-allophycocyanin monoclonal antibodies (BioLegend, San Diego, CA). TER119 was used for erythroid exclusion, prior to identification of allogeneic donor (CD45.1^+), syngeneic donor (CD45.1^+ CD45.2^+), and recipient (CD45.2^+) cells. Dead cells were excluded using 7-aminoactinomycin D. Samples were acquired with an LSR Fortessa (BD Biosciences) and analyzed using FlowJo version 9 software (BD Biosciences). Prism version 9 (GraphPad) was used to calculate CTL indices as the percentage survival of syngeneic donor cells divided by the percentage survival of allogeneic donor cells. […] In vivo perforin inhibition animal experiments were approved by the Animal Ethics Committee of the QIMR Berghofer Medical Research Institute."}, "[2]": {"conditions": "160 mg/kg qd x 4 (0, 24, 48 h prior to and 18 h after transfer), 24 h after transplant"}, "[3]": {"conditions": "80 mg/kg bid (0 and 18 h), pooled with pretransplant dosing data"}, "[4]": {"conditions": "120 mg/kg bid (0 and 18 h), pooled with pretransplant dosing data"}, "[5]": {"conditions": "160 mg/kg bid (0 and 18 h), pooled with pretransplant dosing data"}}, "note": "Several values for one entry are separate records, joined by “and”; a condition that tells them apart may be missing. Identical values can stand only once.", "data": [{"smiles": "O=C1NCc2ccc(-c3ccc(-c4cncc(NS(=O)(=O)c5ccc(F)cc5F)c4)s3)cc21", "note": "[Compound 7, 2,4-difluoro-N-{5-[5-(3-oxo-2,3-dihydro-1H-isoindol-5-yl)-2-thienyl]-3-pyridinyl}benzenesulfonamide]", "values": [{"measurement": "viability at 24 h, 20 µM", "setting": "[1]", "result": "96 ± 6", "unit": "%"}, {"measurement": "% perforin inhibition, spleen", "setting": "perforin; [2]", "result": 26.55, "unit": "%"}]}, {"smiles": "CN1Cc2cc(-c3ccc(-c4cncc(NS(=O)(=O)c5ccccc5[N+](=O)[O-])c4)s3)ccc2C1=O", "note": "[Compound 1, N-{5-[5-(2-methyl-1-oxo-2,3-dihydro-1H-isoindol-5-yl)-2-thienyl]-3-pyridinyl}-2-nitrobenzenesulfonamide]", "values": [{"measurement": "% perforin inhibition, blood", "setting": "perforin; [3]", "result": -0.71, "unit": "%"}, {"measurement": "% perforin inhibition, spleen", "setting": "perforin; [3]", "result": 7.66, "unit": "%"}, {"measurement": "% perforin inhibition, blood", "setting": "perforin; 80 mg/kg qd (one dose at 0 h)", "result": -5.19, "unit": "%"}, {"measurement": "% perforin inhibition, spleen", "setting": "perforin; 80 mg/kg qd (one dose at 0 h)", "result": -4.19, "unit": "%"}, {"measurement": "% perforin inhibition, spleen", "setting": "perforin; 80 mg/kg qd x 4 (0, 24, 48 h prior to and 18 h after transfer), 24 h after transplant", "result": "7.66% and 7%"}, {"measurement": "% perforin inhibition, blood", "setting": "perforin; 80 mg/kg qd x 4, 24 h after transplant", "result": "26.33% and 26%"}, {"measurement": "% perforin inhibition, blood", "setting": "perforin; 80 mg/kg tid (0, 9 and 18 h)", "result": -1.34, "unit": "%"}, {"measurement": "% perforin inhibition, spleen", "setting": "perforin; 80 mg/kg tid (0, 9 and 18 h)", "result": -1.98, "unit": "%"}, {"measurement": "% perforin inhibition, blood", "setting": "perforin; [4]", "result": 43.66, "unit": "%"}, {"measurement": "% perforin inhibition, spleen", "setting": "perforin; [4]", "result": 30.50, "unit": "%"}, {"measurement": "perforin inhibition in vivo (in words)", "setting": "perforin; 120 mg/kg followed by two doses of 80 mg/kg", "result": "moderate perforin inhibition"}, {"measurement": "% perforin inhibition, blood", "setting": "perforin; 120 mg/kg qd (one dose at 0 h)", "result": 17.84, "unit": "%"}, {"measurement": "% perforin inhibition, spleen", "setting": "perforin; 120 mg/kg qd (one dose at 0 h)", "result": 16.71, "unit": "%"}, {"measurement": "% perforin inhibition, spleen", "setting": "perforin; 120 mg/kg qd x 4 (0, 24, 48 h prior to and 18 h after transfer), 24 h after transplant", "result": "39.90% and 40%"}, {"measurement": "% perforin inhibition, blood", "setting": "perforin; 120 mg/kg qd x 4, 24 h after transplant", "result": "44.84% and 45%"}, {"measurement": "% perforin inhibition, blood", "setting": "perforin; 120 mg/kg tid (0, 9 and 18 h)", "result": 69.14, "unit": "%"}, {"measurement": "% perforin inhibition, spleen", "setting": "perforin; 120 mg/kg tid (0, 9 and 18 h)", "result": 40.42, "unit": "%"}, {"measurement": "% perforin inhibition, blood", "setting": "perforin; [5]", "result": 56.50, "unit": "%"}, {"measurement": "% perforin inhibition, spleen", "setting": "perforin; [5]", "result": 42.46, "unit": "%"}, {"measurement": "% perforin inhibition, spleen", "setting": "perforin; [2]", "result": "48.20% and 48%"}, {"measurement": "% perforin inhibition, blood", "setting": "perforin; 160 mg/kg qd x 4, 24 h after transplant", "result": "55.47% and 55%"}, {"measurement": "% perforin inhibition, blood", "setting": "perforin; 120+80+80 mg/kg tid", "result": 34.71, "unit": "%"}, {"measurement": "% perforin inhibition, spleen", "setting": "perforin; 120+80+80 mg/kg tid", "result": 15.22, "unit": "%"}, {"measurement": "perforin inhibition in vivo (in words)", "setting": "perforin; three doses of 80 mg/kg", "result": "ineffective"}, {"measurement": "perforin inhibition in vivo (in words)", "setting": "perforin; three doses of 120 mg/kg", "result": "highly active"}]}]}
